Consider two molecules from patent US20140187595A1 (INSERM (Institut National de la Sante et de la Recherche …, priority 2010, published 2014).

Data set [1] concerns splicing defects associated with myotonic dystrophy. The following applies: Warf et al. 2009; cited from earlier work.
Data set [2] deals with INSR splicing (±exon 11) in DM1 MPCs. Put plainly: INSR splicing (±exon 11, INSR-A/INSR-B ratio) by quantitative PCR in DM1 MPCs. Type of data set: cell-based, human.
The test system of data set [3] is cTNT splicing (±exon 5), pRG6 minigene. Put plainly: cTNT splicing (±exon 5) by RT-PCR in MPCs transfected with pRG6 minigene. The data set is classed as cell-based, human. To be noted: 25 mM, DM1 MPCs. The text has this: FIG. 1E cTNT splicing (±exon 5) in WT and DM1 MPCs cotransfected with the indicated expression vectors and the pSG (d) or pRG6 (e) minigenes respectively (means ±s.d., n=3).
TNNT2 (cTNT) was chosen because, opposite to INSR, abnormal splicing in DM1 leads to the inclusion of an exon (exon 5)^4. As TNNT2 is not expressed in MPCs, cells were transfected with the RG6 minigene^13 based upon the chicken orthologue.

Data set [4] deals with pre-mRNA splicing (Ank2, Capzb, INSR, Nfix, Alp). The following applies: higher dose (600 mg/Kg/day), mouse heart.
A further data set relates to WT MPCs. Put plainly: INSR and cTNT splicing in WT cells. The data set is classed as cell-based, human.
Data set [5] can be described thus: Toxicity in mouse at end of metformin treatment. Type of data set: in vivo, C57BL/6NCr1 mouse. To be noted: 200 and 600 mg/Kg/day by gavage. An excerpt: Enhancement of Ank2 exon 21 and Capzb exon 8 inclusion, INSR exon 11 and Nfix exon […] exclusion or Alp exons 5a and 5b alternative splicing associated to a rescuing effect of DM1 missplicings in mouse skeletal muscle were observed.

The next data set concerns DM1 cells. Nature of the data set: Toxicity on repeated daily treatment of DM1 cells. To be noted: 10 mM repeated daily for up to 10 days.
Another data set has as its system DM1 myoblasts. Put plainly: Splicing in immortalized myoblasts from DM1 patients. Type of data set: cell-based, human. An excerpt:
FIGS. 4A and 4B. Effects of AMPK activators on INSR splicing defect in immortalized myoblasts or freshly isolated peripheral blood lymphocytes (PBLs) from DM1 patients.

Consider `N=C(N)c1ccc(OCCCCCOc2ccc(C(=N)N)cc2)cc1` [Pentamidine, pentamidine], for which the “splicing defects associated with myotonic dystrophy” value in data set [1] is on record as “reverses the splicing defects”.

`CN(C)C(=N)N=C(N)N` [metformin]: the “corrective effect on INSR splicing after repeated treatment” value in data set [2] (10 mM daily for up to 10 days) was “maintained corrective effect”. Moreover, in data set [2] (24 h-treatment, increasing concentrations), the “INSR splicing (±exon 11) rescue” value is on record as “partially rescues”. For the same molecule, the “exogenous cTNT splicing (±exon 5)” value in data set [3] was “decreased inclusion of exon 5”. For the same molecule, in data set [3] (listed as Metformin), the “exogenous cTNT splicing (±exon 5)” value was “restores”. For the same molecule, the “INSR exon 11 exclusion in the heart” value in data set [4] is reported as “enhancement of INSR exon 11 exclusion was also observed”. Besides, the “"MBNL1-related" splicing of the two genes (INSR, cTNT)” value in the data set on WT MPCs is reported as “efficient in facilitating”. Besides, the “toxicity at the end of the treatment period” value in data set [5] is “No sign of toxicity”. For the same molecule, the toxicity entry with DM1 cells is reported as “no observed toxicity”. Further, in the data set on DM1 myoblasts, the “INSR transcript exon 11” value is “exon 11 inclusion”, the “SERCA1 transcript exon 22” value is “exon 22 inclusion”, the “ZASP transcript exon 10” value is “exon 10 skipping” and the “endogenous human cTNT transcript exon 5” value is “exon 5 skipping”.
